Assay results reported in patent US20260248763A1 (BIO GENUINE (SHANGHAI) BIOTECH CO., LTD, priority 2023, published 2026).

How the values were obtained:
OTR = molecular target: T1, OTR (Homo sapiens, UniProt P30559); assay: Ca2+ mobilization in cells stably expressing OTR (FLIPR, antagonist mode); format: cell-based; details: OTR/HEK293 stably transfected cell line
T1 construct: expressed in transfected cells; host or cells: OTR/HEK293 stably transfected cell line
T1 sequence (P30559 1-389): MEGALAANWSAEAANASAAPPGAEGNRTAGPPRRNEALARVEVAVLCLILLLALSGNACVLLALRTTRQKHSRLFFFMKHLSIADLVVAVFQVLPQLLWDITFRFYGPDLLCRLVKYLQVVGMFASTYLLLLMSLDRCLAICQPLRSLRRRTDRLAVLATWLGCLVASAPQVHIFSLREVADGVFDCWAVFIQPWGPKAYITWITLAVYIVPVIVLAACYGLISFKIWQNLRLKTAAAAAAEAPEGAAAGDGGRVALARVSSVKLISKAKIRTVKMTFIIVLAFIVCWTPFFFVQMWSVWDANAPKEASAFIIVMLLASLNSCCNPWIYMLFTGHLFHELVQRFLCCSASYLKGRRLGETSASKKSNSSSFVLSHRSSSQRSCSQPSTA
Outline: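 Antagonist mode: test compounds in 10-point 3-fold series were added on FLIPR to Fluo-4-loaded HEK293 cells stably expressing OTR, followed by reference agonist at its EC80, determined beforehand. The Max-Min calcium fluorescence response was fitted in Prism.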

V1aR = molecular target: T2, V1aR (Homo sapiens, UniProt P37288); assay: Ca2+ mobilization in cells stably expressing V1aR (FLIPR, antagonist mode); format: cell-based; details: V1a-CHO stably transfected cell line
T2 construct: expressed in transfected cells; host or cells: V1a-CHO stably transfected cell line
Text: Test Example 2. Determination of the Effect of the Compound of the Present Disclosure on Ca^2+ Mobilization in Cells Stably Expressing V1aR
To measure the antagonistic effect of the compound of the present disclosure on V1aR activity expressed in the V1a-CHO stably transfected cell line.
• F-12 (Hyclone, SH30026.01) • FLIPR CALCIUM 6 ASSAY KIT (Molecul Device, R8191) • Fetal Bovine Serum (FBS) (AusGeneX, FBS500-S) • Hygromycin B (Solarbio, H8080-1g) • DMSO (Sigma, D4540) • HBSS (Gibco 14025-092) • Probenecid (MCE, HY—B0545) • 0.36 mL 96 Round V-bottom Deep Well Plates for Laboratory (Biaosen P-0.36-BSA-96) • 384-well conical bottom polypropylene plate (Nunc, 264573) • Corning® 384-well Flat Clear Bottom Black Polystyrene TC-treated Microplates (Corning 3764)
• Biological safety cabinet (ECSO, AC2-6S1-TC) • Carbon dioxide cell incubator (ECSO, CCI-170B-8) • Inverted microscope (Olympus, CKX53) • Microplate low-speed centrifuge (Xiangzhi, TD5B) • FLIPR® Penta (Molecul Device, 5.0)
• 1. Cell plating: V1a-CHO cells were digested and harvested, resuspended and counted, and then inoculated into a 384-well cell plate at a density of: 1.2×10^4 cells/25 μL/well. The cell plate was then incubated in an incubator at 37° C. with 5% CO2 for about 16-20 h. • 2. The next day: after preparing Assay Buffer, 20× Component A was thawed to room temperature, diluted with Assay buffer to 1× loading buffer, and placed at room temperature for later use. • 3. The medium was removed from the cell plate, and 40 μL of 1× loading buffer was quickly added to each well. After centrifugation, the cell plate was incubated at 37° C. in the dark for 120 minutes. • 4. The serially diluted positive compound, serially diluted test compound, and agonist working solution were formulated. After mixing the serially diluted positive compound/serially diluted test compound with the agonist at a 1:1 ratio, 20 μL per well was transferred to a 384-well compound source plate. • 5. The cell plate, agonist source plate, and pipette tips were placed into their respective positions in the FLIPR instrument. Using FLIPR Tetra, 10 μL of the diluted agonist from Step 4 was added to each test well, and the data were collected at a wavelength of 515 nm-575 nm. • 6. The signal values were plotted against the compound concentrations, and the curve fitting and IC50 calculation were performed using the nonlinear regression method of GraphPad Prism software.

T2 sequence (P37288 whole entry, species assumed): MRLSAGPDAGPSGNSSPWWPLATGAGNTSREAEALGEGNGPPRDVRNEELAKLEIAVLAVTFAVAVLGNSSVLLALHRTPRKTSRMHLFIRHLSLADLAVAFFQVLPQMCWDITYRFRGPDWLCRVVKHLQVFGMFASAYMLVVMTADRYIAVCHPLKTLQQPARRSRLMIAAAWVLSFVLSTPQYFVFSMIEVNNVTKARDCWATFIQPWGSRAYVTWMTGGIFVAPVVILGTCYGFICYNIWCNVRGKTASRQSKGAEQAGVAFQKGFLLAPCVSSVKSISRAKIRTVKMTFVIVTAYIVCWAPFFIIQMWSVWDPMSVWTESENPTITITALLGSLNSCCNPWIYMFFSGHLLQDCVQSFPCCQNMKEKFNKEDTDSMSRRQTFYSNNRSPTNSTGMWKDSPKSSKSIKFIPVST

SMILES | IC50 (OTR) [nM] | IC50 (V1aR) [nM]
CO/N=C1/C[C@@H](C(C)O)N(C(=O)c2ccc(-c3ccccc3C)cc2)C1 (mixture of isomers) [Example C0067, (S, Z, RS)-(2-(1-Hydroxyethyl)-4-(methoxyimino)pyrrolidin-1-yl)(2′-methyl-[1,1′-biphenyl]-4-yl)methanone] | 13 | 223
CO/N=C1/C[C@@H](CO)N(C(=O)c2cnc(-c3cccc(C)c3C)cn2)C1 [Example A0061, (S, Z)-(5-(2,3-Dimethylphenyl)pyrazin-2-yl)(2-(hydroxymethyl)-4-(methoxyimino)pyrrolidin-1-yl)methanone] | 99.8 | 2390
CO/N=C1/C[C@@H](CO)N(C(=O)c2ccc(-c3cccc(C)c3C)c(C(F)F)c2)C1 [Example A0134, (S,Z)-(2-(Difluoromethyl)-2′, 3′-dimethyl-[1,1′-biphenyl]-4-yl)(2-(hydroxymethyl)-4-(methoxyimino)pyrrolidin-1-yl)methanone] | 13.1 | 5820
CO/N=C1/C[C@@H](CO)N(C(=O)c2ccc(-c3cccc(C)c3C)c(OCCO)c2)C1 [Example A0148, (S, Z)-(2-(2-Hydroxyethoxy)-2′,3′-dimethyl-[1,1′-biphenyl]-4-yl)(2-(hydroxymethyl)-4-(methoxyimino)pyrrolidin-1-yl)methanone] | 34.4 | 732
CO/N=C1/C[C@@H](CO)N(C(=O)c2ccc(-c3cccc(C)c3C)c(C(=O)NC3COC3)c2)C1 [Example A0157, (S, Z)-4-(2-(Hydroxymethyl)-4-(methoxyimino)pyrrolidine-1-carbonyl)-2′, 3′-dimethyl-N-(oxetan-3-yl)-[1,1′-biphenyl]-2-carboxamide] | 119 | 6740
CO/N=C1/C[C@@H](CO)N(C(=O)c2ccc(-c3cccc(C#N)c3C)c3c2OCCN3C)C1 [Example A0162] | 31.5 | 587
CO/N=C1/C[C@@H](CO)N(C(=O)c2ccc(-c3cccc(C#N)c3C)c3c2cnn3C)C1 [Example A0167, 3-(4-[(2S,4Z)-2-(Hydroxymethyl)-4-(methoxyimino)pyrrolidine-1-carbonyl]-1-methyl-1H-indazol-7-yl)-2-methylbenzonitrile] | 49.8 | 1480
CO/N=C1/C[C@@H](CO)N(C(=O)c2ccc(-c3cccc(C#N)c3C)c(C#N)c2)C1 [Example A0173, 2-(3-Cyano-2-methylphenyl)-5-[(2S, 4Z)-2-(hydroxymethyl)-4-(methoxyimino)pyrrolidine-1-carbonyl]benzonitrile] | 36.1 | 8770
COCCOc1cc(C(=O)N2C/C(=N\OC)C[C@H]2CO)ccc1-c1cccc(C#N)c1C [Example A0191, (S, Z)-4′-(2-(Hydroxymethyl)-4-(methoxyimino)pyrrolidine-1-carbonyl)-2′-(2-methoxyethoxy)-2-methyl-[1, 1′-biphenyl]-3-carbonitrile] | 16.8 | 1020
CO/N=C1/C[C@@H](CO)N(C(=O)c2ccc(-c3cccc(C#N)c3C)c(OC)n2)C1 [Example A0215, 3-(6-[(2S, 4Z)-2-(Hydroxymethyl)-4-(methoxyimino)pyrrolidine-1-carbonyl]-2-methoxypyridin-3-yl)-2-methylbenzonitrile] | 58.7 | 11200
CO/N=C1/C[C@@H](CO)N(C(=O)c2ccc(-c3cccc(C#N)c3C)c3c2OCCCO3)C1 [Example A0235, (S,Z)-3-(9-(2-(Hydroxymethyl)-4-(methoxyimino)pyrrolidine-1-carbonyl)-3,4-dihydro-2H-benzo[b][1,4]dioxepin-6-yl)-2-methylbenzonitrile] | 23.2 | 1360
CO/N=C1/C[C@@H](CO)N(C(=O)c2ncc(-c3cccc(C)c3C)s2)C1 [Example C0097, (S, Z)-(5-(2,3-Dimethylphenyl)thiazol-2-yl)(2-(hydroxymethyl)-4-(methoxyimino)pyrrolidin-1-yl)methanone] | 815 | –

Second part, the compound after the results:

IC50 (OTR) [nM] | IC50 (V1aR) [nM] | SMILES
55.9 | 13200 | CON=C1CC(CO)N(C(=O)c2ccc(-c3cccc(C#N)c3C)c3c2OCO3)C1 (single isomer, unassigned) [Example C0098]
12.6 | 2350 | CO/N=C1/C[C@@H]([C@H](C)O)N(C(=O)c2ccc(-c3cccc(C#N)c3C)cc2)C1 (single isomer, unassigned) [Example C0111]
55.3 | 1560 | CO/N=C1\C[C@@H]([C@@H](C)O)N(C(=O)c2ccc(-c3cccc(C#N)c3C)cc2)C1 (single isomer, unassigned) [Example C0113]
1480 | – | CO/N=C1/C[C@@H](CO)N(C(=O)c2ccc(-c3cccc(C)c3C)c(=O)n2C)C1 [Example C0103, (S,Z)-3-(2,3-Dimethylphenyl)-6-(2-(hydroxymethyl)-4-(methoxyimino)pyrrolidine-1-carbonyl)-1-methylpyridin-2(1H)-one]
102 | – | CO/N=C1/C[C@@H](CO)N(C(=O)c2ccc(-c3cccc(C#N)c3C(F)(F)F)cc2)C1 [Example C0127, (S, Z)-4′-(2-(Hydroxymethyl)-4-(methoxyimino)pyrrolidine-1-carbonyl)-2-(trifluoromethyl)-[1,1′-biphenyl]-3-carbonitrile]
7.43 | – | CO/N=C1/C[C@@H](CO)N(C(=O)c2ccc(-c3cccc(C(F)F)c3C)c3c2OCCO3)C1 [Example C0137, (S,Z)-(8-(3-(Difluoromethyl)-2-methylphenyl)-2,3-dihydrobenzo[b][1,4]dioxin-5-yl)(2-(hydroxymethyl)-4-(methoxyimino)pyrrolidin-1-yl)methanone]
40.5 | – | CO/N=C1/C[C@@H](CO)N(C(=O)c2ccc(-c3c(F)ccc(C#N)c3C)c3c2OCO3)C1 [Example C0139, 4-Fluoro-3-(7-((S,Z)-2-(hydroxymethyl)-4-(methoxyimino)pyrrolidine-1-carbonyl)benzo[d][1,3]dioxol-4-yl)-2-methylbenzonitrile]
59.9 | – | CO/N=C1/C[C@@H](CO)N(C(=O)c2ccc(-c3cc(F)cc(C#N)c3C)c3c2OCO3)C1 [Example C0144, (S,Z)-5-Fluoro-3-(7-(2-(hydroxymethyl)-4-(methoxyimino)pyrrolidine-1-carbonyl)benzo[d][1,3]dioxol-4-yl)-2-methylbenzonitrile]
228 | – | CO/N=C1/C[C@@H](CO)N(C(=O)c2ccc3c(c2)OCCc2c(C#N)cccc2-3)C1 [Example C0146, (S, Z)-3-(2-(Hydroxymethyl)-4-(methoxyimino)pyrrolidine-1-carbonyl)-6,7-dihydrodibenzo[b,d]oxepine-8-carbonitrile]
158 | – | CO/N=C1\C[C@@H](CO)N(C(=O)c2ccc(-c3ccc(F)c(C#N)c3C)c3c2OCCO3)C1 [Example C0148, (S,E)-6-Fluoro-3-(8-(2-(hydroxymethyl)-4-(methoxyimino)pyrrolidine-1-carbonyl)-2,3-dihydrobenzo[b][1,4]dioxin-5-yl)-2-methylbenzonitrile]
73.6 | – | CO/N=C1\C[C@@H](CO)N(C(=O)c2ccc(-c3cccc(C#N)c3C)cc2F)C1 [Example C0156, (S,E)-3′-Fluoro-4′-(2-(hydroxymethyl)-4-(methoxyimino)pyrrolidine-1-carbonyl)-2-methyl-[1,1′-biphenyl]-3-carbonitrile]
72 | – | CO/N=C1\C[C@@H](C(C)(C)O)N(C(=O)c2ccc(-c3cccc(C#N)c3C)cc2)C1 [Example C0163, (S,E)-4′-(2-(2-Hydroxypropan-2-yl)-4-(methoxyimino)pyrrolidine-1-carbonyl)-2-methyl-[1,1′-biphenyl]-3-carbonitrile]
